{
  "source": "patent US6057419A",
  "about": "“Cascade polymer complexes, process for producing the same and pharmaceuticals containing the same” (Schering Aktiengesellschaft, priority 1995, dated 2000)",
  "key": {"[1]": {"conditions": "in vivo; cited from earlier work"}, "[2]": {"conditions": "cited from earlier work"}, "[3]": {"experiment": "In vivo comparison with an extracellular contrast medium: blood concentrations and pharmacokinetics in rats (ICP-AES, Topfit program)", "conditions": "rats (n=3), i.v.", "procedure": "The suitability of the compound described in Example 1l as a blood-pool agent is shown in the following test.\nAs test animals, three male (Schering-SPF) rats that are 200-250 g in weight are used. 0.2 ml (respectively 25 mmol/L) of the following contrast medium solution per animal is administered intravenously: mixture of 1 part each of the compound of 1l, named compound 1 below, and the dysprosium complex of 3,6,9-triaza-3,6,9-tris(carboxymethyl)-undecanedioicacid (Dy-DTPA), named compound 2 below. Blood samples are taken with a catheter in the common carotid artery at the following times: 1, 3, 5, 10, 15, 20, 30, 45, 60, 90, 120 minutes p.i. In the blood samples obtained, the concentrations of gadolinium (Gd) and dysprosium (Dy) are measured with the aid of atomic emission spectrometry (ICP-AES) in each case in a parallel manner. The portion of the injected contrast medium of compound 1 (Gd) and compound 2 (Dy, comparison substance), remaining in the blood space, can be compared in the same animals by the different marking. The a- and b-half-lives, the volume of distribution as well as the total clearance can be calculated from the blood concentrations with the aid of special software (Topfit program).\nMeasured blood concentrations of Gd (compound 1) and Dy (compound 2) in rats (n=3)"}, "[4]": {"conditions": "excretion tests in rats; cited from earlier work"}},
  "data": [
    {"molecule": "CNC[C@H](O)[C@@H](O)[C@H](O)[C@H](O)CO.CNC[C@H](O)[C@@H](O)[C@H](O)[C@H](O)CO.O=C([O-])CN(CCN(CC(=O)[O-])CC(=O)O)CCN(CC(=O)[O-])CC(=O)O.[Gd+3]", "note": "[Magnevist]", "values": [
      {"measurement": "dispersion space (entire extracellular space: intravascular space and interstitium)", "setting": "[1]", "result": "about 20 % of the volume of the body"}
    ]},
    {"molecule": "CNC(=O)CN(CCN(CCN(CC(=O)[O-])CC(=O)NC)CC(=O)[O-])CC(=O)[O-].[Gd+3]", "note": "[Omniscan]", "values": [
      {"measurement": "dispersion space (entire extracellular space: intravascular space and interstitium)", "setting": "[1]", "result": "about 20 % of the volume of the body"}
    ]},
    {"molecule": "CC(O)CN1CCN(CC(=O)[O-])CCN(CC(=O)[O-])CCN(CC(=O)[O-])CC1.[Gd+3]", "note": "(stereo not shown) [Pro Hance]", "values": [
      {"measurement": "dispersion space (entire extracellular space: intravascular space and interstitium)", "setting": "[1]", "result": "about 20 % of the volume of the body"}
    ]},
    {"molecule": "COCC(=O)Nc1c(I)c(C(=O)NCC(O)CO)c(I)c(C(=O)N(C)CC(O)CO)c1I", "note": "(stereo not shown) [Ultravist]", "values": [
      {"measurement": "dispersion space (entire extracellular space: intravascular space and interstitium)", "setting": "[1]", "result": "about 20 % of the volume of the body"}
    ]},
    {"molecule": "albumin-GdDTPA", "values": [
      {"measurement": "concentration in the liver tissue", "setting": "[2]; 24 h after intravenous injection in rats", "result": "~30 % of the dose"},
      {"measurement": "dose eliminated", "setting": "[2]; in 24 hours, rats, i.v.", "result": "20 % of the dose"}
    ]},
    {"molecule": "dysprosium complex of 3,6,9-triaza-3,6,9-tris(carboxymethyl)-undecanedioicacid [Compound 2, reference compound]", "values": [
      {"measurement": "Vd ss (volume of distribution)", "setting": "[3]", "result": "0.41 ± 0.04", "unit": "L/kg"},
      {"measurement": "α-t1/2", "setting": "[3]; blood", "result": "1.5 ± 0.5", "unit": "min"},
      {"measurement": "β-t1/2", "setting": "[3]; blood", "result": "19.2 ± 2.5", "unit": "min"}
    ]},
    {"molecule": "polylysine-GdDTPA", "values": [
      {"measurement": "excretion (in words)", "setting": "[4]", "result": "excreted unchanged by glomerular filtration through the kidneys"}
    ]}
  ]
}
